# Ends that are not written are not given here.
# Experiments:
# [1] = target: T1, tau-three microtubule binding domain repeats (Homo sapiens, UniProt P10636); assay: Dot blot analysis of peptide binding to tau; conditions: peptide 10^−3M spotted, 2 μM tau
# T1 construct: made in house
# Procedure: For Dot Blot analysis, 5 μl of each sample [vasoactive intestinal peptide VIP (Dangoor et al., Regul Pept, 137: 42-49 (2006)); negative control and NAP 10^−3M) was applied onto the nitrocellulose membrane (Schleicher & Schuell, Dassel, Germany), and was left to dry (2 hr, room temperature). The membrane was further incubated with 2 μM tau-three microtubule binding domain repeats (1.5 hr, room temperature). The non-specific sites were blocked by soaking in a blocking solution (10 mM Tris, 6 mM NaCl, 0.05% Tween 20) that was supplemented with 5% low-fat milk (1 hr at room temperature). The membrane was incubated with primary antibody (tau5 antibody 1:1000), dissolved in 5% milk in blocking solution (12 hours at 4 C). The membrane was then washed three times with the blocking solution (3×10 min), incubated with secondary antibody conjugated with horseradish peroxidase (HRP) (1 hr at room temperature) and washed again three times with blocking solution (10 min×3). The membrane was incubated with ECL reagent (Western blotting detection system; Amersham Biosciences) for 1 min, covered and exposed Biomax Light Film (Kodak, Rochester, N.Y., USA). […]
# [2] = test system: mixed neuroglial cultures from newborn rat cortex; assay: Neuroprotection against beta-amyloid 1-42 in mixed neuroglial cultures, MAP2 ELISA; format: cell-based; conditions: 0.25 μM beta-amyloid 1-42, 5 days, n=10 per data point
# NIH 3T3 fibroblasts = conditions: cited from earlier work
# tubulin [3] = conditions: cited from earlier work
# beta III tubulin = target: T2, beta III tubulin (Homo sapiens, UniProt Q13509); assay: Microtubule pelleting assay, western blot with beta III tubulin antibodies; format: biochemical; conditions: NAP 1 pM, tubulin 10 μM, tau 2.5 μM; vs absence of NAP
# T2 construct: purchased Cytoskeleton (Denver, Colo., USA)
# Procedure: FIG. 7 illustrates the effect of NAP (1 pM) on beta III tubulin precipitation (10 μM) with tau (2.5 μM) during microtubule (MT) assembly. The experiment was carried out as in FIG. 5, except that beta III antibodies were used. S=supernatant; P=pellet. The reduction of beta III tubulin in the pellet was significant (P<0.05). Beta III tubulin is enriched in neurons (Banerjee et al., J. Biol. Chem. 265: 1794-1799 (1990); Joshi and Cleveland, Cell Motil. Cytoskeleton 16:159-163 (1990)).
# Densitometric scanning of the western blots (e.g. FIG. 7) including 8 independent experiments are depicted on the figures. S=supernatant; P=pellet; western blot anti beta III tubulin, 1:1, 400. The reduction reached significance (*P<0.05).
# (§1) Tubulin, tau and NAP were prepared as described in Example 1. The microtubule pelleting assay was also carried out as in Example 1.
# The resulting pellet was subjected to 12.0% polyacrylamide gel containing SDS (Kar et al. (2003)). Gels were either stained for proteins (Coomassie Brilliant Blue) or subjected to western analysis to specifically identify and quantitate tubulin in the microtubule pellet. […]
# [4] = in vivo; cited from earlier work
# [5] = test system: model of fetal alcohol syndrome; conditions: in vivo, ip; cited from earlier work
# [6] = test system: tubulin tyrosination cycle in rat pheochromocytoma cells (PC12); assay: Cell-based tubulin tyrosination cycle assay in PC12 cells (confocal microscopy, ELISA); conditions: 2 hr
# Text: Changes in the tubulin tyrosination cycle were used to study the effects of NAP on microtubule dynamics (Gozes and Littauer, Nature. 276:411-413 (1978)). This cycle includes the slow removal of the C-terminal tyrosine of microtubule alpha tubulin, resulting in Glu-tubulin and the fast re-addition of tyrosine (Tyr) to soluble alpha-tubulin in a reaction requiring ATP. […] A cell-based assay for anti-microtubule activity that relies on the properties above allows the identification of both microtubule-destabilizing and microtubule-stabilizing agents. The assay allows assessment of the relative degree of stable microtubule versus dynamic microtubules (Vassal et al., J Biomol Screen, 11: 377-389 (2006)) using confocal microscopy as well as quantitative Enzyme-Linked Immunosorbent Assay (ELISA).
# Rat pheochromocytoma cells (PC12) were grown in Dulbecco's modified eagles medium (DMEM) supplemented with 5% fetal bovine serum and 10% donor horse serum 1% penicillin—streptomycin, 1% L-Glutamine (Beit Haemek, Israel) in an atmosphere of 5% CO2 and 95% air at 37° C. […] Cells were seeded on 96, 48 or 24 well plates in 100, 300 or 500 μl of medium volumes respectively and allowed to grow for 48 hr.
# In short, medium was aspirated and cells were incubated for 3 min with 100, 300 or 500 μl warm MTSBT (Pipes pH 6.8 80 mM, EGTA 4 mM, MgCl2 1 mM, Triton X-100 0.5% v/v) buffer followed by 6 min with 100, 300 or 500 μl cold methanol (−20° C.). Blocking followed a re-hydration in cold TBST (NaCl 0.15 M, Tris-Cl pH 7.4, Triton X-100 0.1% v/v) followed by 5% non fat milk in TBST 10 min at room temp or −50 μg/ml of Goat IgG in AbDil [TBST+2% bovine serum albumin (Sigma, Rehovot Israel)] 10 min at room temp. For microtubule and nuclear staining, 50 μl (per well) of rat monocloncal antibodies detecting tyrosinated tubulin (YL1/2, Abcam, Cambridge, UK) and rabbit polyclonal antibodies detecting glutaminated tubulin (Abcam, Cambridge, UK) at 1:1000 dilution were added. After a 2 hr (37° C.) incubation the cells were washed twice with TBST or TBS and 50 μl per well of secondary goat anti-rat coupled by Cynine 3—Cy3 (1:1000), Cy2 goat anti rabbit (1:1000) (Jackson ImmunoResearch, West Grove, Pa., U.S.A), and Hoechst 33258 (Sigma) 1 μg/ml were added. Following one hour incubation at 37° C. and 3 washes in TBST or TBS, fluorescence was measured using Tecan Microplate fluorescent reader (Neoteck scientific instrumentation, Switzerland) infinite F200 and Magellan software version 6.3.
# For visual inspection, cells were seeded on microscope cover slips, mounted on slides and inspected using confocal microscopy as before (Divinski et al. (2006)). […]
# beta tubulin = assay: Microtubule pelleting assay, western blot with TUB2.1 beta tubulin antibody; format: biochemical; conditions: NAP 1 pM, tubulin 10 μM, tau ~2.5 μM; 6 independent experiments
# Procedure: FIG. 5 illustrates the effect of NAP on beta tubulin precipitation (10 μM) with tau (2.5 μM) during microtubule (MT) assembly. NAP (1 pM) incubation apparently reduces beta tubulin in the microtubule pellet. The monoclonal antibody used (TUB2.1) interacts specifically with beta tubulin species. Gozes and Barnstable, Proc Natl Acad Sci USA, 79: 2579-2583 (1982). Blots were performed as before (Divinski et al., J Neurochem, 98: 973-984 (2006)). S=supernatant; P=pellet.
# Densitometric scanning of the western blots (e.g. FIG. 5) including 6 independent experiments are depicted on the figure. S=supernatant; P=pellet; western blot antitubulin 2.1, 1:1, 400.
# as §1
# The resulting pellet was subjected to 12.0% polyacrylamide gel containing SDS (Kar et al. (2003)). Gels were either stained for proteins (Coomassie Brilliant Blue) or subjected to western analysis to specifically identify and quantitate tubulin in the microtubule pellet. Three different antibodies were used, rabbit anti tubulin (Gozes et al. (1977)), mouse monoclonal antibodies that prefers neuronal beta tubulin species, TUB2.1 (Boss et al., Brain Res, 433:199-218 (1987); Gozes and Barnstable (1982)) and tubulin beta III (neuronal enriched) antibodies as before (Divinski et al. (2006)). […]
# [7] = test system: microtubules (tubulin and tau); assay: Transmission electron microscopy of microtubules from mixtures of tubulin, tau and NAP; format: biochemical
# Procedure: FIGS. 3A-E show electron microscopy studies were carried out on mixtures of tubulin, tau, and NAP. […] FIGS. 3A and 3C are 25,000× magnification; FIGS. 3B and 3D are 200,000× magnification. […] Additional electron microscopy studies were carried out on mixtures of NAP (1 pM, lanes 4,5,6. […]), tubulin 6 μM (lanes1,4, FIG. 3E) or 10 μM (lanes 2,3,5,6, FIG. 3E) and tau. Tubulin was obtained from Cytoskeleton (Denver, Colo., USA) and tau (0.7 μM) was purified from recombinant cDNA obtained from Professor Linda Amos (Kar et al., Embo J, 22: 70-77 (2003).). […] The box plot represents 3 different experiments (control vs. NAP-treated). Each experiment consists of either three or four repeats. P<0.001. The density of the microtubules was estimated by counting 20-23 fields in each of the experimental samples.
# Transmission electron microscopy was carried out to identify and quantitate microtubule size and appearance in the presence and absence of NAP (in the microtubule pellets described above). Grids were stained with […].
# [8] = test system: MAP-2 expression in neuronal cells; conditions: cited from earlier work
# microtubule formation = conditions: cited from earlier work
# tau = tau (Homo sapiens, UniProt P10636); assay: Affinity chromatography on NAP-affinity column with tau-specific western blot; format: binding
# cell cultures = conditions: cited from earlier work
# ischemic injury = conditions: after ischemic injury; cited from earlier work
# [9] = test system: closed head injury in mice; conditions: cited from earlier work
# tubulin [10] = assay: Microtubule pelleting assay, western blot with polyclonal tubulin antibodies; format: biochemical; conditions: NAP 1 pM, tubulin 10 μM, tau ~2.5 μM
# Procedure: FIG. 9 illustrates the effect of NAP on tubulin precipitation (10 μM) with tau (2.5 μM) during microtubule (MT) assembly. The experiment was carried out as in FIG. 5, except that polyclonal tubulin antibodies were used. (Gozes et al., FEBS Lett. 73(1):109-14 (1977)).
# Densitometric scanning of the western blots (e.g. FIG. 9) including 6 independent experiments are depicted on the figure. S=supernatant; P=pellet; western blot anti tubulin, 1:1, 400-2000.
# as §1
# The resulting pellet was subjected to 12.0% polyacrylamide gel containing SDS (Kar et al. (2003)). Gels were either stained for proteins (Coomassie Brilliant Blue) or subjected to western analysis to specifically identify and quantitate tubulin in the microtubule pellet. Three different antibodies were used, rabbit anti tubulin (Gozes et al. (1977)), mouse monoclonal antibodies that prefers neuronal beta tubulin species, TUB2.1 (Boss et al., Brain Res, 433:199-218 (1987); Gozes and Barnstable (1982)) and tubulin beta III (neuronal enriched) antibodies as before (Divinski et al. (2006)). Western blotting was performed as before (Divinski et al. (2006)).
# normal aging rats = conditions: intranasal administration; cited from earlier work
# tau hyperphosphorylation = conditions: animal models; cited from earlier work
# tubulin [11] = assay: Tubulin-NAP binding
# T1 sequence (P10636 1-410 isoform P10636-5): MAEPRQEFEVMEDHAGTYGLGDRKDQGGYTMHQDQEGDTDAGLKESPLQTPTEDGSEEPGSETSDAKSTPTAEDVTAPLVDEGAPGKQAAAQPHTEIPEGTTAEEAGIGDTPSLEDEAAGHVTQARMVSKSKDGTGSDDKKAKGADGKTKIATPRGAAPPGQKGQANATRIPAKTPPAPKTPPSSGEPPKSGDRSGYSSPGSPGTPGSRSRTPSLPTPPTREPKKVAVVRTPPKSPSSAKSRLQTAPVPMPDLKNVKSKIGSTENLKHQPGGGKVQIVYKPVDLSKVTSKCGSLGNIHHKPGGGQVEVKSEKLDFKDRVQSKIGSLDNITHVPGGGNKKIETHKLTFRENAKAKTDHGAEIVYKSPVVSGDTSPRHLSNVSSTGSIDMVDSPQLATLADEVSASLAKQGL
# T2 sequence (Q13509 whole entry): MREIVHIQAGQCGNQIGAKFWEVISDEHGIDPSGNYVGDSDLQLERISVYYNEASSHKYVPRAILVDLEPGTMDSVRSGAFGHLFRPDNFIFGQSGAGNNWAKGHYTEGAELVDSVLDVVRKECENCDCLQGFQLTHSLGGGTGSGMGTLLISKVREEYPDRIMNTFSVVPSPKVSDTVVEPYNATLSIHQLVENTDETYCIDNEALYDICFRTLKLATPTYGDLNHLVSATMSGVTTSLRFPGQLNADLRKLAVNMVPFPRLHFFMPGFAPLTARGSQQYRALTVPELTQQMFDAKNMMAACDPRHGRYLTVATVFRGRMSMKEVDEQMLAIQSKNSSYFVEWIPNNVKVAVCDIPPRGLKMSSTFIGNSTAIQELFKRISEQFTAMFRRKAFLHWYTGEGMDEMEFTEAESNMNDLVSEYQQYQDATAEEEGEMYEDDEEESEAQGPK
# T2 sequence (Q71U36 whole entry partner): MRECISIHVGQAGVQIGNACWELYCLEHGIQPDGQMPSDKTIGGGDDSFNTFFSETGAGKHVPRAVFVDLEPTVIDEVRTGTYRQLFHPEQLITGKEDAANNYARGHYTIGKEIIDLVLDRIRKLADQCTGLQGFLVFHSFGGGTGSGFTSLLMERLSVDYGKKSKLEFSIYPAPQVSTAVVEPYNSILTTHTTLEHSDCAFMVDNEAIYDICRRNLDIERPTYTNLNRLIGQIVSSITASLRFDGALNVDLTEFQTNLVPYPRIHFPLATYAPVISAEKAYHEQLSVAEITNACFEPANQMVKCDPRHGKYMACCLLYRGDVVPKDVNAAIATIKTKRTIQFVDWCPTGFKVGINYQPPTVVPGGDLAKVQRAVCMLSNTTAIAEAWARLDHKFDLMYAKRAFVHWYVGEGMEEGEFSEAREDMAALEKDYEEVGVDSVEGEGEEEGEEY
# Sequence of tau (P10636 1-441 isoform P10636-8): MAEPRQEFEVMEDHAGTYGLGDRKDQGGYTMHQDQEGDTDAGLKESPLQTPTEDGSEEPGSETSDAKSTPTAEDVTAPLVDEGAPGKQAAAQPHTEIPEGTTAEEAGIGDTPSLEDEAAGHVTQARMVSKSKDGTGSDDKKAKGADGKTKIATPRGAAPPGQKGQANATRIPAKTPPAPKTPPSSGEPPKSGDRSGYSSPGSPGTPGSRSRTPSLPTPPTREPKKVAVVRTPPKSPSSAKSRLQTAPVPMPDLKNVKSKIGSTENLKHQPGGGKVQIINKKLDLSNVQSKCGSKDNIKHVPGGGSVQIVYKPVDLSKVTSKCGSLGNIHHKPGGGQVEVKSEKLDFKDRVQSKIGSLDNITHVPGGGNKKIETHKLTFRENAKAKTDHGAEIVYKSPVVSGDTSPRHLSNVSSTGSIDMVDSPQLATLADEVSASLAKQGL
molecule,measurement,setting,value
"vasoactive intestinal peptide [VIP, reference compound]",binding to tau (dot blot),[1],does not interact
"TAPVPMPD [a NAP-like, tau-derived peptide]",concentrations at which neuronal survival was enhanced (MAP2 staining),[2],10^−19-10^−9 M
Asn-Ala-Pro-Val-Ser-Ile-Pro-Gln [NAP],interaction with NIH 3T3 fibroblasts or other dividing cells,NIH 3T3 fibroblasts,does not interact
same,binding to tubulin,tubulin [3],binds tubulin
same,decrease in tubulin beta III in the microtubule pellet,beta III tubulin,approximately 2 fold
same,crossing of the blood-brain barrier,[4],can cross the blood-brain barrier
same,fetal death after intraperitoneal injection of alcohol,[5],inhibited
same,dose response for activation of the tyrosination cycle (ELISA),[6]; 10^−19 M—10^−7M,biphasic dose response curve
same,activity on the tubulin tyrosination cycle,[6]; NAP 10^−11M,not active
same,tyrosinated and detyrosinated alpha tubulin,[6]; NAP 10^−15M,significantly increased tyrosinated and detyrosinated alpha tubulin
same,reduction of beta tubulin in the microtubule pellet (TUB2.1 antibody),beta tubulin,not significant
same,microtubule density (electron microscopy),"[7]; NAP 1 pM, tubulin 6 or 10 μM, tau 0.7 μM, vs control w/o NAP",increased microtubule density
same,curves and microtubule length (electron microscopy),[7]; NAP-treated samples vs control w/o NAP,increases
same,MAP-2 expression,[8],increases MAP-2 expression
same,microtubule formation (turbidity),microtubule formation,stimulate microtubule formation
same,binding to tau (affinity chromatography),tau,binds to tau
same,binding to tau (dot blot),[1],can bind directly to tau
same,neuroprotective activity against a wide variety of toxins,cell cultures,neuroprotective activity at femtomolar concentrations
same,infarct volume and motor function deficits,ischemic injury,reduced infarct volume and motor function deficits
same,damage caused by closed head injury,[9],reducing damage
same,decrease of tubulin in the microtubule pellet (polyclonal anti-tubulin antibodies),tubulin [10],no significant decrease
same,performance in the Morris water maze,normal aging rats,improved performance
same,tau hyperphosphorylation,tau hyperphosphorylation,protected against tau hyperphosphorylation
"CC(=O)O[C@H]1C(=O)[C@@]2(C)[C@H]([C@H](OC(=O)c3ccccc3)[C@]3(O)C[C@H](OC(=O)[C@H](O)[C@@H](NC(=O)c4ccccc4)c4ccccc4)C(C)=C1C3(C)C)[C@]1(OC(C)=O)CO[C@@H]1C[C@@H]2O [paclitaxel, reference compound]",detyrosinated tubulin,[6]; paclitaxel 5 μM,significantly increased detyrosinated tubulin
SALLRSIPA [ADNF-9],effect on tubulin-NAP binding,tubulin [11],diminish tubulin-NAP binding

# Reference: patent US8377875B2, “Therapeutics based on tau/microtubule dynamics” (Ramot at Tel-Aviv University Ltd., priority 2007, dated 2013)
